Where two headings read alike, the source gives them in different places.
How the values were obtained:
[1] = target: FLNA pentapeptide of SEQ ID NO: 1 (Bn-VAKGL) (Homo sapiens, UniProt P21333); assay: FITC-NLX-based FLNA screening assay (inhibition of FITC-naloxone binding to Bn-VAKGL on streptavidin plates); conditions: 10 nM FITC-NLX
mu opiate receptor (MOR) = assay: MOR agonist activity using [35S]GTPγS binding assay in striatal membranes; format: biochemical; conditions: for MOR agonist activity ([35S]GTPγS binding), FLNA-Binding Compound as Agonist 1 μM + BFNA: 1 μM compound + 1 μM β-funaltrexamine
Outline: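 Striatal membranes (200 μg) were preincubated 5 min at 30 °C in HEPES pH 7.5 with 100 mM NaCl, 1 mM MgCl2 and 0.5 nM [35S]GTPγS, then 5 min more with 0.1–10 μM compound. Gαo was immunoprecipitated and bound radioactivity counted by scintillation.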

[2] = 0.1 μM compound relative to DAMGO
[3] = 1 μM compound + BFNA relative to DAMGO + BFNA
[4] = 1 μM compound relative to DAMGO
[5] = read-out: Percent Binding Inhibition, FLNA-binding compound 0.01 μM
[6] = read-out: Percent Binding Inhibition, FLNA-binding compound 0.1 μM
[7] = read-out: Percent Binding Inhibition, FLNA-binding compound 1 μM
[8] = Series B, 0.1 μM compound, relative to DAMGO
[9] = Series B, 0.1 μM compound, [35S]GTPγS binding to Gαo, striatal membranes
[10] = Series B, 1 μM compound + 1 μM β-FNA
[11] = Series B, 1 μM compound + β-FNA, relative to DAMGO + BFNA
[12] = Series B, 1 μM compound, relative to DAMGO
[13] = Series B, 1 μM compound, [35S]GTPγS binding to Gαo, striatal membranes
[14] = FLNA-binding compound 0.1 μM, read-out: Percent Binding Inhibition
[15] = FLNA-binding compound 1 μM, read-out: Percent Binding Inhibition
[16] = Series C-1, 0.1 μM compound, relative to DAMGO
[17] = Series C-1, 0.1 μM compound, [35S]GTPγS binding to Gαo, striatal membranes
[18] = Series C-1, 1 μM compound + 1 μM β-FNA
[19] = Series C-1, 1 μM compound + β-FNA, relative to DAMGO + BFNA
[20] = Series C-1, 1 μM compound, relative to DAMGO
[21] = Series C-1, 1 μM compound, [35S]GTPγS binding to Gαo, striatal membranes
[22] = FLNA-binding compound 0.01 μM, read-out: Percent Binding Inhibition
[23] = Series C-2, 0.1 μM compound, relative to DAMGO
[24] = Series C-2, 0.1 μM compound, [35S]GTPγS binding to Gαo, striatal membranes
[25] = Series C-2, 1 μM compound + 1 μM β-FNA
[26] = Series C-2, 1 μM compound + β-FNA, relative to DAMGO + BFNA
[27] = Series C-2, 1 μM compound, relative to DAMGO
[28] = Series C-2, 1 μM compound, [35S]GTPγS binding to Gαo, striatal membranes

Structure (SMILES) | MOR agonist activity ([35S]GTPγS binding), FLNA-Binding Compound as Agonist 0.1 μM (mu opiate receptor (MOR); 0.1 μM compound) [%] | % DAMGO (0.1 μM) (mu opiate receptor (MOR); [2]) [%] | MOR agonist activity ([35S]GTPγS binding), FLNA-Binding Compound as Agonist 1 μM (mu opiate receptor (MOR); 1 μM compound) [%] | MOR agonist activity ([35S]GTPγS binding), FLNA-Binding Compound as Agonist 1 μM + BFNA (mu opiate receptor (MOR)) [%] | % DAMGO + BFNA (mu opiate receptor (MOR); [3]) [%] | % DAMGO (1 μM) (mu opiate receptor (MOR); [4]) [%] | inhibition at 0.01 µM [1, 5] [%] | inhibition at 0.1 µM [1, 6] [%] | inhibition at 1 µM [1, 7] [%] | inhibition at 0.1 µM [1, 14] [%] | inhibition at 1 µM [1, 15] [%] | inhibition at 0.01 µM [1, 22] [%] | further results
COc1ccc(OCC(O)CN2CCc3cc4c(c(OC)c3C2)OCO4)cc1 (stereo not drawn) [Compound A0070] | 128.6 | 74.7 | 195.3 | 80.3 | 232.8 | 88.9 | – | – | – | – | – | – | Percent Binding Inhibition ([1]; FLNA-binding compound 0.01 μM): 32.9%; Percent Binding Inhibition ([1]; FLNA-binding compound 0.1 μM): 39.1%; Percent Binding Inhibition ([1]; FLNA-binding compound 1 μM): 41.7%
COc1c2c(cc3c1C(CC(=O)Cc1ccc(C#N)cc1)[N+](C)(C)CC3)OCO2 (stereo not drawn) [Compound B0012] | – | – | – | – | – | – | 39.4 | 46.9 | 51.7 | – | – | – | % DAMGO (0.1 μM) (mu opiate receptor (MOR); [8]): 97.8%; MOR agonist activity, percent [35S]GTPγS binding at the stated compound concentration (mu opiate receptor (MOR); [9]): 167.4%; MOR agonist activity, percent [35S]GTPγS binding at the stated compound concentration (mu opiate receptor (MOR); [10]): 145.1%; % DAMGO + BFNA (mu opiate receptor (MOR); [11]): 278.5%; % DAMGO (1 μM) (mu opiate receptor (MOR); [12]): 79.4%; MOR agonist activity, percent [35S]GTPγS binding at the stated compound concentration (mu opiate receptor (MOR); [13]): 212.0%
CC(=O)Nc1ccc(S(=O)(=O)N2CCC3(CC2)OCCN3S(=O)(=O)c2ccc(NC(C)=O)cc2)cc1 [Compound C0013] | – | – | – | – | – | – | 39.6 | – | – | 42.4 | 49.1 | – | % DAMGO (0.1 μM) (mu opiate receptor (MOR); [16]): 91.0%; Concentration of FLNA-Binding Compound as Agonist 0.1 μM (mu opiate receptor (MOR); [17]): 156.6%; Concentration of FLNA-Binding Compound as Agonist 1 μM + BFNA (mu opiate receptor (MOR); [18]): 39.6%; % DAMGO + BFNA (mu opiate receptor (MOR); [19]): 61.8%; % DAMGO (1 μM) (mu opiate receptor (MOR); [20]): 108.9%; Concentration of FLNA-Binding Compound as Agonist 1 μM (mu opiate receptor (MOR); [21]): 301.2%
Cc1cccc(OCC(O)CN2CC(C)OC(C)C2)c1 (stereo not drawn) [Compound A0030] | 133.4 | 75.5 | 287.8 | 165.2 | 628.1 | 113.2 | – | – | – | 44.4 | 48.9 | 35.6 | –
CCCCN1CCC2(CC1)OCCN2S(=O)(=O)c1ccc(OC)cc1 [Compound C0102M] | – | – | – | – | – | – | – | – | – | 53.1 | 56.6 | 52.3 | % DAMGO (0.1 μM) (mu opiate receptor (MOR); [23]): 78.6%; MOR agonist activity, percent [35S]GTPγS binding at the stated compound concentration (mu opiate receptor (MOR); [24]): 131.8%; MOR agonist activity, percent [35S]GTPγS binding at the stated compound concentration (mu opiate receptor (MOR); [25]): 150.4%; % DAMGO + BFNA (mu opiate receptor (MOR); [26]): 316.6%; % DAMGO (1 μM) (mu opiate receptor (MOR); [27]): 122.4%; MOR agonist activity, percent [35S]GTPγS binding at the stated compound concentration (mu opiate receptor (MOR); [28]): 272.0%
CN(C)c1cccc(OCC(O)CN2CCc3ccccc3C2)c1 (stereo not drawn) [Compound A0050] | 151.0 | 77.0 | 189.3 | 81.0 | 109.6 | 68.6 | – | – | – | 49.8 | 52.1 | 42.9 | –
O=S(=O)(c1ccc(OC(F)(F)F)cc1)N1CCC2(CC1)OCCN2S(=O)(=O)c1ccc(OC(F)(F)F)cc1 [Compound C0006] | – | – | – | – | – | – | 41.6 | 46.8 | 51.8 | – | – | – | % DAMGO (0.1 μM) (mu opiate receptor (MOR); [16]): 70.6%; Concentration of FLNA-Binding Compound as Agonist 0.1 μM (mu opiate receptor (MOR); [17]): 121.5%; Concentration of FLNA-Binding Compound as Agonist 1 μM + BFNA (mu opiate receptor (MOR); [18]): 4.6%; % DAMGO + BFNA (mu opiate receptor (MOR); [19]): 7.2%; % DAMGO (1 μM) (mu opiate receptor (MOR); [20]): 73.8%; Concentration of FLNA-Binding Compound as Agonist 1 μM (mu opiate receptor (MOR); [21]): 204.0%
COc1c2c(cc3c1C(CC(=O)c1ccc(N4CCOCC4)cc1)[N+](C)(C)CC3)OCO2 (stereo not drawn) [Compound B0004] | – | – | – | – | – | – | 38.9 | 50 | 54.8 | – | – | – | % DAMGO (0.1 μM) (mu opiate receptor (MOR); [8]): 102.8%; MOR agonist activity, percent [35S]GTPγS binding at the stated compound concentration (mu opiate receptor (MOR); [9]): 170.3%; MOR agonist activity, percent [35S]GTPγS binding at the stated compound concentration (mu opiate receptor (MOR); [10]): 72.0%; % DAMGO + BFNA (mu opiate receptor (MOR); [11]): 110.8%; % DAMGO (1 μM) (mu opiate receptor (MOR); [12]): 85.8%; MOR agonist activity, percent [35S]GTPγS binding at the stated compound concentration (mu opiate receptor (MOR); [13]): 231.7%
O=[N+]([O-])c1ccc(S(=O)(=O)N2CCC3(CC2)NCCCO3)cc1 [Compound C0045] | – | – | – | – | – | – | – | – | – | 48.9 | 53.7 | 39.1 | % DAMGO (0.1 μM) (mu opiate receptor (MOR); [23]): 88.3%; MOR agonist activity, percent [35S]GTPγS binding at the stated compound concentration (mu opiate receptor (MOR); [24]): 149.2%; MOR agonist activity, percent [35S]GTPγS binding at the stated compound concentration (mu opiate receptor (MOR); [25]): 105.3%; % DAMGO + BFNA (mu opiate receptor (MOR); [26]): 634.3%; % DAMGO (1 μM) (mu opiate receptor (MOR); [27]): 109.1%; MOR agonist activity, percent [35S]GTPγS binding at the stated compound concentration (mu opiate receptor (MOR); [28]): 238.8%

Reference: patent US10363239B2, “Method for inhibiting growth of cancer cells” (Pain Therapeutics, Inc., priority 2013, dated 2019)
